From patent publication US6348488B1, “Remedies for motor dysfunction and GAPDH expression inhibitors” (Ono Pharmaceutical Co., Ltd., priority 1998, dated 2002)

How the values were obtained:
spinal cord impact model = assay: Motor dysfunction inhibitory action in spinal cord impact model (treadmill maximum walking distance); assay type: in vivo, rat
Protocol: A male Wistar rat (about 250 g) was placed in a supine position under anesthesia with sodium pentobarbital (40 mg/kg, i.p.). After partial laminectomy to remove the fifth lumber spine, a silicon rubber (height: 1 mm, length: 4 mm, and width: 1.25 mm) was inserted in the fourth and sixth lumber spines.
After the operation, the maximum walking distance was measured using a treadmill on Day 1, 2, 3, 5, 7 and 14.
That is, the treadmill was run at a speed starting from 10 m/min, with an increment at a rate of 5 m/min every 3 minutes thereafter until the time when the animal dropped from the walking belt and could not walk any further. The walking distance was calculated from the time when the animal could not walk any further.

[1] = test system: spinal cord injury crush lesion model; assay: Motor dysfunction in spinal cord injury (crush lesion model, modified Tarlov scale); assay type: in vivo, rat; details: 10 mg/kg, versus vehicle control group
Protocol: A male Wistar rat (about 250 to 300 g) was subject to dorsal median incision and laminectomy to remove thoracic spine (T11) under anesthesia with sodium pentobarbital and then the dura mater was exposed. A metal pole (diameter: 3 mm, length: 40 mm, weight: 3.8 g) was placed on the dura mater and a load of 10 g was dropped from a height of 10 cm through a cylinder to prepare a crush lesion model. Thereafter, the muscle layer and skin were sutured. The behavioral deficit was evaluated using modifications of Tarlov scale. That is, the evaluation was made based on mean scores of both hind legs according to the following scores. Neurologic scores: 0 Complete paralysis of hind legs 1 Slight movements of hind legs were observed. 2 Movements of hind legs were clear but the body weight could not be supported so that autonomic movement was impossible. 3 The animal crept and could not support the body weight. 4 The animal could support the body weight when standing or walking. However, clearly disabled. 5 Posture and walking ability are close to those of normal animals.

[2] = test system: cerebellar granule cells (CGC); assay: cells; assay type: cell-based; details: for Age-induced apoptosis of CGC: added at 7 DIV, agent 0.03 μM, THA 10 μM
Protocol: A) Preparation of primary culture cerebellar granule cells (CGC)
According to the method by Ishitani et al., CGC was prepared as follows (Ishitani et al., J. Neurochem., 66:928-35, 1996).
Cerebellum was excised from an 8-day old Sprague-Dawley rat and cut to 0.4 mm square cubes using Mcllawin tissue chopper. Further, the cubes were digested at 37° C. for 15 minutes in a 0.025% trypsin-containing Krebs phosphate buffer (KPB).
After the reaction was stopped with KPB containing 0.008% soybean trypsin inhibitor and 0.0016% deoxyribonuclease I, the digested cubes were triturated in KPB containing 0.01% deoxyribonuclease I and 0.05% soybean trypsin inhibitor using a convergent Pasteur pipette to obtain dispersed CGC.
The cells were suspended in a basal modified Eagle's medium (BME) containing 10% fetal calf serum (FCS), 2 mM glutamine, 50 μg/ml gentamycin and 25 mM potassium chloride (KCl), and seeded on a plastic dish (35 mm) coated with poly-L-lysine (molecular weight: 3-7×10^4, 100 μg/ml) to a cell density of 2.1×10^5 live cells/cm^2.
Under 5% carbon dioxide (CO2), culture was started at 37° C. and after 18 to 24 hours cytosine arabinofuranoside (10 μM) for preventing the growth of non-neuronal cells was added and culture was continued. At 7 DIV (days in vitro), various chemicals were added and thereafter, culture was continued in the same medium.
B) Measurement of viability by live double staining method with FDA-PI
CGC after desired culture days was washed twice with 2 ml of Locke's solution (154 mM NaCl, 5.6 mM KCl, 2.3 mM CaCl2, 1.2 mM MgSO4, 5 mM HEPES, 5.6 mM glucose, 3.6 mM NaHCO3, pH 7.4) and then stained with 0.0008% fluorescein diacetate (FDA) and 0.0002% propidium iodide (PI) for 3 to 5 minutes.
Fluorescent observation was performed using epi-illuminated fluorescent microscope (Olympus, IMT2-RFL) equipped with a dichroic mirror for B excitement (IMT2-DMB), an auxiliary excitation filter (EY455) and an auxiliary filter (O530).
FDA was decomposed by an esterase in the living cells to emit fluorescence (fluorescein) from green to yellow fluorescence, on the other hand PI permeates through dead cell membranes and binds with DNA to emit from red to brown fluorescence, so that the both fluorescences can be observed simultaneously using the above-described fluorescence microscopy.
Viability was calculated according to the following formula.
Viability=[FDA stained cell number/(FDA stained cell number+PI stained cell number)]×100

GAPDH mRNA = GAPDH mRNA expression in CGC, Northern blotting analysis; assay type: cell-based, rat; details: addition at 7 DIV; measured at 15 DIV (CGC)
Protocol: Preparation of the primary culture cerebellar granule cells (CGC) was performed in accordance with Test Example 3 A).
Then, according to the method of Fukamauchi et al., total RNA was extracted from CGC of the desired culture day number. The total RNA (9 μg/lane) was electrophoresed on 1.2% agarose formaldehyde gel and transferred to a nylon membrane (Hybond-N, Amersham). Thereafter, it was subjected to prehybridization at 42° C. for 3 to 5 hours in a solution containing 5×Denhardt's solution (0.1% Ficol 400, 0.1% polyvinyl pyrrolidone, 0.1% BSA), 50% formamide, 50 μg/ml salmon testis DNA, and 0.5% SDS (Fukamauchi et al., J. Neurochem., 56:716-9, 1991, Sunaga et al., Neurosci. Lett., 163:27-30, 1993).
Using a Multi prime DNA labelling kit (Amersham), human GAPDH cDNA probe (Clontech, Palo Alto, Calif., U.S.A.) labeled with [α-^32P] deoxycytidine 5′-triphosphate (3,000 Ci/mm pl) was thermally denatured and thereafter added to the prehybridization solution, followed by hybridization at 42° C. for 24 hours.
The membrane was fully washed at 60° C. for 10 minutes in 0.1% SDS containing 0.1×SSC ([…], pH 7.0), exposed on a high-sensitivity X-ray film (IPSO 3000, Fuji) to prepare an autoradiogram. Quantitative analysis was performed using a CCD type image analyzer (BIOPROFIL, M&S).

GAPDH protein = GAPDH protein expression in CGC, SDS-PAGE and Western blotting analyses; assay type: cell-based, rat; details: process of age-induced cell death
Protocol: The cultured cells of the desired culture day number were washed three times with 2 ml of PBS and then stripped off by a rubber policeman and the cells were recovered by centrifugation at 188×G at 4° C. for 5 minutes. The cells were resuspended in ice-cooled 50 mM Tris-HCl buffer (pH 7.4) and the cell membranes were destroyed by sonication.
The homogenate was centrifuged at 2×10^5×G at 4° C. for 30 minutes to obtain a precipitate (insoluble fraction (pellet)), which was resuspended in the same buffer and then was subjected to quantitative determination of protein together with the supernatant (soluble “supernatant”). […]
The gel after the electrophoresis was stained with 0.1% Coomassie blue. The quantitative analysis of the amount of 38-kDa protein band was performed using a CCD type image analyzer (BIOPROFIL, N&S). […]
The PDVF membrane after the transcription was treated in 0.5% skim milk containing TBS-T (20 mM Tris, 137 mM NaCl, 0.05% Tween 20, pH 7.4) for 60 minutes to effect blocking, and then was allowed to react at room temperature for 60 minutes in TBS-T containing primary antibody (anti-rabbit GAPDH monoclonal antibody diluted to 1:15000). […] After washing the PVDF membrane, quantitative determination of GAPDH protein was performed on a high-sensitivity X-ray film using a detector for chemiluminescence (Renaissance TM, NEN).

[3] = Acute toxicity, rat, intravenous administration; assay type: in vivo
[4] = test system: 30 types or more of surface receptors inclusive of overactivated NMDA receptors; assay: Influence on surface receptors in age-induced apoptosis of CGC

Compound | Maximum Walking Distance (spinal cord impact model; 1 mg/Kg, Day 2 after administration) [m] | Maximum Walking Distance (spinal cord impact model; 1 mg/Kg, Day 4 after administration) [m] | Maximum Walking Distance (spinal cord impact model; 1 mg/Kg, Day 11 after administration) [m] | Maximum Walking Distance (spinal cord impact model; 10 mg/Kg orally, Day 2 after administration) [m] | Maximum Walking Distance (spinal cord impact model; 10 mg/Kg orally, Day 4 after administration) [m] | Maximum Walking Distance (spinal cord impact model; 10 mg/Kg orally, Day 11 after administration (day 14 after operation)) [m] | Maximum Walking Distance (spinal cord impact model; 10 mg/Kg orally, Day 11 after administration (day 14 after operation), listed as N-[3-[N-(4-chlorophenylmethyl)carbamoyl]propanoyl]-L-prolinal) [m] | Influence on the autonomic movement and sensitivity to pain (spinal cord impact model; rat, spinal cord impact model) | Degree of recovery of motor dysfunction (neurologic score) ([1]; day 9 up to day 21 of the operation) | Change in body weight after the operation [1] | viability at 0.03 µM ([2]; Rattus norvegicus, 0.03 μM added at 7 DIV, at 17 DIV) [%] | Age-induced apoptosis of CGC [2] | Concentration exhibiting a protective action to neurons ([2]; at 17 DIV) | Increase in GAPDH mRNA (GAPDH mRNA) | Increase in the 38-kDa protein (GAPDH) in cell membrane fraction (GAPDH protein) | Acute toxicity (LD50) [3] [mg/kg body weight] | Influence on surface receptors [4] | Inhibition of the cell death ([2]; 1 μM) | Inhibition of the cell death ([2]; 10 μM)
O=C[C@@H]1CCCN1C(=O)CCC(=O)NCc1ccc(Cl)cc1 [Agent of invention, N-[3-[N-(4-chlorophenylmethyl)carbamoyl]propanoyl]-L-prolinal] | 237 ± 49 | 414 ± 58 | 347 ± 77 | 329 ± 15 | 455 ± 34 | 408 ± 30 | 408±30 | no influence | tended to be superior as compared with the vehicle control group | tended to be superior to the vehicle control group | 92 ± 4.4 | inhibited | several | completely inhibited | inhibited the increase | 200 | no influence |  | 
Nc1c2c(nc3ccccc13)CCCC2 [THA, 9-amino-1,2,3,4-tetrahydroacridine, reference compound] |  |  |  |  |  |  |  |  |  |  |  | inhibited |  |  |  |  |  | about 30% | almost completely
